Tests used:
[1] = target: T1, human B1R receptor (bradykinin 1 receptor) (Homo sapiens, UniProt P46663); assay: FLIPR Ca2+ assay (Fluo-4) on CHO K1 cells stably transfected with the human B1R gene; % activation and % inhibition at 10 μM; type: cell-based; conditions: CHO-K1, test substance 10 μM; CHO K1 hB1R cells; Ca2+ inflow after 0.5 nM Lys-Des-Arg9-bradykinin; read-out: B1R antagonism, human [10 μM] % inhibition
T1 construct: host or cells: CHO K1 cells (hB1R cells)
T1 sequence (P46663 1-353): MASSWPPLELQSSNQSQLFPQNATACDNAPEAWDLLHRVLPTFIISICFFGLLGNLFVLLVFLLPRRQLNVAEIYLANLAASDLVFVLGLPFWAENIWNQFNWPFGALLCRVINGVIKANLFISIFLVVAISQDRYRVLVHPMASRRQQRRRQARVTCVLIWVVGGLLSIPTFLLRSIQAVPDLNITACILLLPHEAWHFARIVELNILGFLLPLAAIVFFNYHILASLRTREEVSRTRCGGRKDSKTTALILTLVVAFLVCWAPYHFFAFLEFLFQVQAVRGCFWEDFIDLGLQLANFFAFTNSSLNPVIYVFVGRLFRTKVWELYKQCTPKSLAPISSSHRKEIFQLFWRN
Outline: (§1)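 Fluo-4 Ca2+ flux on FLIPR in stable hB1R or rB1R CHO K1 lines, two additions. Agonism: 10 µM compound versus 0.5 nM Lys-Des-Arg9-BK (human) or 100 nM Des-Arg9-BK (rat); antagonism: same agonists applied 10 min later, suppression expressed against maximum achievable inhibition.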

[2] = target: T2, B1R receptor of the rat (bradykinin 1 receptor) (Rattus norvegicus, UniProt P97583); assay: FLIPR Ca2+ assay (Fluo-4) on CHO K1 cells stably transfected with the B1R gene of the rat; % activation and % inhibition at 10 μM; type: cell-based; conditions: CHO-K1, test substance 10 μM; CHO K1 rB1R cells; Ca2+ inflow after 100 nM Des-Arg9-bradykinin; read-out: B1R antagonism, rat [10 μM] % inhibition
T2 construct: host or cells: CHO K1 cells (rB1R cells)
T2 sequence (P97583 1-337): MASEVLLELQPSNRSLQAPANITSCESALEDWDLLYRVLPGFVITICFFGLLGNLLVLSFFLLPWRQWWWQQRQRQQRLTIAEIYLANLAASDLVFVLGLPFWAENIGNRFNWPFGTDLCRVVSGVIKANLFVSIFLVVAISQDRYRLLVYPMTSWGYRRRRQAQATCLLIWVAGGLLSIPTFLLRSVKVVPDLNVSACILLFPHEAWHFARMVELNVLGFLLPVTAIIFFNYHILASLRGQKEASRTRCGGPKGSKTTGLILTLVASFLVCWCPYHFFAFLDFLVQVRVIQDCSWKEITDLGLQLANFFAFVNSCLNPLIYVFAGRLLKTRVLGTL
Outline: as §1

| SMILES | inhibition at 10 µM [1] [%] | inhibition at 10 µM [2] [%] |
| --- | --- | --- |
| COc1cc(C)c(S(=O)(=O)N2CCCC2COCC(=O)N2CCC(O)(c3ccc(Br)cc3)CC2)c(C)c1 (centres unmarked) [Example 214, 1-(4-(4-bromophenyl)-4-hydroxypiperidin-1-yl)-2-((1-(4-methoxy-2,6-dimethylphenylsulfonyl)pyrrolidin-2-yl)methoxy)ethanone] | 97.9 | 101 |
| COc1cc(C)c(S(=O)(=O)N2CCCC2COCC(=O)N2CCC(O)(c3ccccc3)CC2)c(C)c1 (centres unmarked) [Example 215, 1-(4-hydroxy-4-phenylpiperidin-1-yl)-2-((1-(4-methoxy-2,6-dimethylphenylsulfonyl)pyrrolidin-2-yl)methoxy)ethanone] | 104 | 102 |
| COc1cc(C)c(S(=O)(=O)N2CCCC2COCC(=O)N2CCC(O)(Cc3ccccc3)CC2)c(C)c1 (centres unmarked) [Example 216, 1-(4-benzyl-4-hydroxypiperidin-1-yl)-2-((1-(4-methoxy-2,6-dimethylphenylsulfonyl)pyrrolidin-2-yl)methoxy)ethanone] | 102 | 100 |
| COc1cc(C)c(S(=O)(=O)N2CCCC2COCC(=O)N2CCC(O)(c3cccc(C(F)(F)F)c3)CC2)c(C)c1 (centres unmarked) [Example 217, 1-(4-hydroxy-4-(3-(trifluoromethyl)phenyl)piperidin-1-yl)-2-((1-(4-methoxy-2,6-dimethylphenylsulfonyl)pyrrolidin-2-yl)methoxy)ethanone] | 105 | 99.9 |
| O=C(COCC1CCCN1S(=O)(=O)c1c(Cl)cccc1Cl)N1CCC(O)(c2ccc(Cl)c(C(F)(F)F)c2)CC1 (centres unmarked) [Example 218, 1-(4-(4-chloro-3-(trifluoromethyl)phenyl)-4-hydroxypiperidin-1-yl)-2-((1-(2,6-dichlorophenylsulfonyl)pyrrolidin-2-yl)methoxy)ethanone] | 103 | 102 |
| O=C(COCC1CCCN1S(=O)(=O)c1c(Cl)cccc1Cl)N1CCC(O)(c2ccc(Br)cc2)CC1 (centres unmarked) [Example 219, 1-(4-(4-bromophenyl)-4-hydroxypiperidin-1-yl)-2-((1-(2,6-dichlorophenylsulfonyl)pyrrolidin-2-yl)methoxy)ethanone] | 102 | 101 |
| O=C(COCC1CCCN1S(=O)(=O)c1c(Cl)cccc1Cl)N1CCC(O)(c2ccccc2)CC1 (centres unmarked) [Example 220, 2-((1-(2,6-dichlorophenylsulfonyl)pyrrolidin-2-yl)methoxy)-1-(4-hydroxy-4-phenylpiperidin-1-yl)ethanone] | 99 | 102 |
| O=C(COCC1CCCN1S(=O)(=O)c1c(Cl)cccc1Cl)N1CCC(O)(Cc2ccccc2)CC1 (centres unmarked) [Example 221, 1-(4-benzyl-4-hydroxypiperidin-1-yl)-2-((1-(2,6-dichlorophenylsulfonyl)pyrrolidin-2-yl)methoxy)ethanone] | 23.5 | 89.5 |
| O=C(COCC1CCCN1S(=O)(=O)c1c(Cl)cccc1Cl)N1CCC(O)(c2cccc(C(F)(F)F)c2)CC1 (centres unmarked) [Example 222, 2-((1-(2,6-dichlorophenylsulfonyl)pyrrolidin-2-yl)methoxy)-1-(4-hydroxy-4-(3-(trifluoromethyl)phenyl)piperidin-1-yl)ethanone] | 102 | 103 |
| O=C(COCC1CCCN1S(=O)(=O)c1cc(Cl)sc1Cl)N1CCC(O)(c2ccc(Cl)c(C(F)(F)F)c2)CC1 (centres unmarked) [Example 223, 1-(4-(4-chloro-3-(trifluoromethyl)phenyl)-4-hydroxypiperidin-1-yl)-2-((1-(2,5-dichlorothiophen-3-ylsulfonyl)pyrrolidin-2-yl)methoxy)ethanone] | 15.1 | 99.5 |
| O=C(COCC1CCCN1S(=O)(=O)c1cc(Cl)sc1Cl)N1CCC(O)(c2ccc(Br)cc2)CC1 (centres unmarked) [Example 224, 1-(4-(4-bromophenyl)-4-hydroxypiperidin-1-yl)-2-((1-(2,5-dichlorothiophen-3-ylsulfonyl)pyrrolidin-2-yl)methoxy)ethanone] | 49.1 | 102 |
| O=C(COCC1CCCN1S(=O)(=O)c1cc(Cl)sc1Cl)N1CCC(O)(c2ccccc2)CC1 (centres unmarked) [Example 225, 2-((1-(2,5-dichlorothiophen-3-ylsulfonyl)pyrrolidin-2-yl)methoxy)-1-(4-hydroxy-4-phenylpiperidin-1-yl)ethanone] | 43.1 | 88.5 |

Other lines, results leading:

| inhibition at 10 µM [1] [%] | inhibition at 10 µM [2] [%] | SMILES |
| --- | --- | --- |
| 13 | 72.4 | O=C(COCC1CCCN1S(=O)(=O)c1cc(Cl)sc1Cl)N1CCC(O)(Cc2ccccc2)CC1 (centres unmarked) [Example 226, 1-(4-benzyl-4-hydroxypiperidin-1-yl)-2-((1-(2,5-dichlorothiophen-3-ylsulfonyl)pyrrolidin-2-yl)methoxy)ethanone] |
| 7.61 | 80.9 | O=C(COCC1CCCN1S(=O)(=O)c1cc(Cl)sc1Cl)N1CCC(O)(c2cccc(C(F)(F)F)c2)CC1 (centres unmarked) [Example 227, 2-((1-(2,5-dichlorothiophen-3-ylsulfonyl)pyrrolidin-2-yl)methoxy)-1-(4-hydroxy-4-(3-(trifluoromethyl)phenyl)piperidin-1-yl)ethanone] |
| 95 | 101 | COc1cc(C)c(S(=O)(=O)N2CCC(COCC(=O)N3CCC(O)(c4ccc(Cl)c(C(F)(F)F)c4)CC3)C2)c(C)c1 (centres unmarked) [Example 228, 1-(4-(4-chloro-3-(trifluoromethyl)phenyl)-4-hydroxypiperidin-1-yl)-2-((1-(4-methoxy-2,6-dimethylphenylsulfonyl)pyrrolidin-3-yl)methoxy)ethanone] |
| 65.5 | 100 | O=C(COCC1CCCCN1S(=O)(=O)c1cc(Cl)sc1Cl)N1CCC(O)(c2cccnc2)CC1 (centres unmarked) [Example 229, 2-((1-(2,5-dichlorothiophen-3-ylsulfonyl)piperidin-2-yl)methoxy)-1-(4-hydroxy-4-(pyridin-3-yl)piperidin-1-yl)ethanone] |
| 100 | 100 | COc1cc(C)c(S(=O)(=O)N2CCC(COCC(=O)N3CCC(O)(c4ccc(Br)cc4)CC3)C2)c(C)c1 (centres unmarked) [Example 230, 1-(4-(4-bromophenyl)-4-hydroxypiperidin-1-yl)-2-((1-(4-methoxy-2,6-dimethylphenylsulfonyl)pyrrolidin-3-yl)methoxy)ethanone] |
| 102 | 98.7 | COc1cc(C)c(S(=O)(=O)N2CCC(COCC(=O)N3CCC(O)(c4cccc(C(F)(F)F)c4)CC3)C2)c(C)c1 (centres unmarked) [Example 231, 1-(4-hydroxy-4-(3-(trifluoromethyl)phenyl)piperidin-1-yl)-2-((1-(4-methoxy-2,6-dimethylphenylsulfonyl)pyrrolidin-3-yl)methoxy)ethanone] |
| 54.5 | 63.1 | COc1cc(C)c(S(=O)(=O)N2Cc3ccccc3CC2COCC(=O)N2CCC(O)(Cc3ccccc3)CC2)c(C)c1C (centres unmarked) [Example 232, 1-(4-benzyl-4-hydroxypiperidin-1-yl)-2-((2-(4-methoxy-2,3,6-trimethylphenylsulfonyl)-1,2,3,4-tetrahydroisoquinolin-3-yl)methoxy)ethanone] |

Source: US8580965B2, “Substituted sulfonamide compounds” (Gruenenthal GmbH, priority 2006, dated 2013)
